Here are results for 20 molecules from ChEMBL document CHEMBL6120981, “Optimisation of a novel series of ENaC inhibitors, leading to the selection of the long-acting inhaled clinical candidate ETD001, a potential new treatment for cystic fibrosis” (Eur J Med Chem, 2025).

Broadly, the IC50 is the midpoint of a concentration-inhibition curve. High values mean weaker potency in that assay, low ones greater potency in that assay. In general, logD refers to lipophilicity at a set pH, counting ionised and neutral species. The low end stands for a more hydrophilic compound, the high end for a more lipophilic compound.

SMILES strings stand for the structures. The source made the active and inactive calls. The rule behind the calls is not given here.

The nature of series [1]: Inhibition of ENaC in human Primary bronchial epithelial cell. In kind it is cell-based.
Series [2] is described as follows: Lipophilicity, log D of the compound. Particulars: octanol/water. In kind it is physicochemical.
Series [3] deals with Ovis aries. The series is described as follows: Mucociliary clearance activity in sheep mucociliary clearance model assessed as effective dose administered as inhalation pre-administered for 4 to 6 hrs followed by aerosolized technetium-labeled sulfur colloid (99mTc-Sc , 20 mCi) addition by Scintigraphic imaging based analysis. The format is functional. Particulars: time 4-6 hrs.

Series [4] can be described thus: Drug uptake in male Sprague-Dawley rat Bronchoalveolar lavage assessed as fold decrease BAL level at 0.3 mg/kg, IT measured upto 6 hrs by LC-MS/MS analysis. In kind it is ADME, organism-based. Particulars: in vivo, other.
Series [5] in a line: Drug uptake in male Sprague-Dawley rat Bronchoalveolar lavage assessed as decrease BAL level at 0.3 mg/kg, IT measured after 6 hrs by LC-MS/MS analysis relative to control. The format is ADME, organism-based. As to conditions: in vivo, other.
Series [6] can be described thus: Plasma protein binding in human. In kind it is ADME, cell-free. Particulars: read-out: PPB (converted).
Series [7] in a line: Plasma protein binding in rat. The format is ADME, cell-free. As to conditions: read-out: PPB (converted).
A short description of series [8]: Plasma protein binding in dog. In kind it is ADME, cell-free, Canis lupus familiaris. Particulars: read-out: PPB (converted).
The test system of a further series is Cytochrome P450. The series is described as follows: Inhibition of CYP450 (unknown origin). As to conditions: human. The format is ADME, protein assay.
In series [9] the target is Voltage-gated inwardly rectifying potassium channel KCNH2 (Homo sapiens, UniProt Q12809). The series can be described thus: Inhibition of human ERG at 30 uM by automated patch clamp method. The format is toxicity. On the technique in general: In patch-clamp work, channel activity is measured electrically.
Series [10] addresses Voltage-dependent L-type calcium channel subunit alpha-1C (Homo sapiens, UniProt Q13936). The series is described as follows: Inhibition of Cav1.2 (unknown origin) at 10 uM by automated patch clamp method.
For series [11], the target named is Sodium channel protein type 5 subunit alpha (Homo sapiens, UniProt Q14524). The series can be described thus: Inhibition of Nav1.5 (unknown origin) 10 uM by automated patch clamp method.
For series [12], the target named is Potassium voltage-gated channel subfamily A member 5 (Homo sapiens) (UniProt P22460). The series can be described thus: Inhibition of Kv1.5 (unknown origin) at 10 uM by automated patch clamp method.
The nature of series [13]: Mutagenicity in Salmonella typhimurium strains by Ames test. The format is toxicity. As to conditions: salmonella enterica subsp. enterica serovar typhimurium. A general note: The Ames test uses bacterial strains that need an amino acid and regain growth without it when mutated back.
In series [14] the test system is Ovis aries. The series can be described thus: Mucociliary clearance activity in sheep mucociliary clearance model assessed as assessed as improvement in lung residence time administered as inhalation pre-administered for 4 to 6 hrs followed by aerosolized technetium-labeled sulfur colloid (99mTc-Sc , 20 mCi) addition by Scintigraphic imaging based analysis. The format is functional, organism-based. As to conditions: time 4-6 hrs.

Series [15] can be described thus: Drug uptake in male Sprague-Dawley rat lung at 0.3 mg/kg, IT measured upto 6 hrs by LC-MS/MS analysis. Particulars: in vivo, other. The format is ADME, organism-based.

Sequence of Voltage-dependent L-type calcium channel subunit alpha-1C (Q13936 whole entry): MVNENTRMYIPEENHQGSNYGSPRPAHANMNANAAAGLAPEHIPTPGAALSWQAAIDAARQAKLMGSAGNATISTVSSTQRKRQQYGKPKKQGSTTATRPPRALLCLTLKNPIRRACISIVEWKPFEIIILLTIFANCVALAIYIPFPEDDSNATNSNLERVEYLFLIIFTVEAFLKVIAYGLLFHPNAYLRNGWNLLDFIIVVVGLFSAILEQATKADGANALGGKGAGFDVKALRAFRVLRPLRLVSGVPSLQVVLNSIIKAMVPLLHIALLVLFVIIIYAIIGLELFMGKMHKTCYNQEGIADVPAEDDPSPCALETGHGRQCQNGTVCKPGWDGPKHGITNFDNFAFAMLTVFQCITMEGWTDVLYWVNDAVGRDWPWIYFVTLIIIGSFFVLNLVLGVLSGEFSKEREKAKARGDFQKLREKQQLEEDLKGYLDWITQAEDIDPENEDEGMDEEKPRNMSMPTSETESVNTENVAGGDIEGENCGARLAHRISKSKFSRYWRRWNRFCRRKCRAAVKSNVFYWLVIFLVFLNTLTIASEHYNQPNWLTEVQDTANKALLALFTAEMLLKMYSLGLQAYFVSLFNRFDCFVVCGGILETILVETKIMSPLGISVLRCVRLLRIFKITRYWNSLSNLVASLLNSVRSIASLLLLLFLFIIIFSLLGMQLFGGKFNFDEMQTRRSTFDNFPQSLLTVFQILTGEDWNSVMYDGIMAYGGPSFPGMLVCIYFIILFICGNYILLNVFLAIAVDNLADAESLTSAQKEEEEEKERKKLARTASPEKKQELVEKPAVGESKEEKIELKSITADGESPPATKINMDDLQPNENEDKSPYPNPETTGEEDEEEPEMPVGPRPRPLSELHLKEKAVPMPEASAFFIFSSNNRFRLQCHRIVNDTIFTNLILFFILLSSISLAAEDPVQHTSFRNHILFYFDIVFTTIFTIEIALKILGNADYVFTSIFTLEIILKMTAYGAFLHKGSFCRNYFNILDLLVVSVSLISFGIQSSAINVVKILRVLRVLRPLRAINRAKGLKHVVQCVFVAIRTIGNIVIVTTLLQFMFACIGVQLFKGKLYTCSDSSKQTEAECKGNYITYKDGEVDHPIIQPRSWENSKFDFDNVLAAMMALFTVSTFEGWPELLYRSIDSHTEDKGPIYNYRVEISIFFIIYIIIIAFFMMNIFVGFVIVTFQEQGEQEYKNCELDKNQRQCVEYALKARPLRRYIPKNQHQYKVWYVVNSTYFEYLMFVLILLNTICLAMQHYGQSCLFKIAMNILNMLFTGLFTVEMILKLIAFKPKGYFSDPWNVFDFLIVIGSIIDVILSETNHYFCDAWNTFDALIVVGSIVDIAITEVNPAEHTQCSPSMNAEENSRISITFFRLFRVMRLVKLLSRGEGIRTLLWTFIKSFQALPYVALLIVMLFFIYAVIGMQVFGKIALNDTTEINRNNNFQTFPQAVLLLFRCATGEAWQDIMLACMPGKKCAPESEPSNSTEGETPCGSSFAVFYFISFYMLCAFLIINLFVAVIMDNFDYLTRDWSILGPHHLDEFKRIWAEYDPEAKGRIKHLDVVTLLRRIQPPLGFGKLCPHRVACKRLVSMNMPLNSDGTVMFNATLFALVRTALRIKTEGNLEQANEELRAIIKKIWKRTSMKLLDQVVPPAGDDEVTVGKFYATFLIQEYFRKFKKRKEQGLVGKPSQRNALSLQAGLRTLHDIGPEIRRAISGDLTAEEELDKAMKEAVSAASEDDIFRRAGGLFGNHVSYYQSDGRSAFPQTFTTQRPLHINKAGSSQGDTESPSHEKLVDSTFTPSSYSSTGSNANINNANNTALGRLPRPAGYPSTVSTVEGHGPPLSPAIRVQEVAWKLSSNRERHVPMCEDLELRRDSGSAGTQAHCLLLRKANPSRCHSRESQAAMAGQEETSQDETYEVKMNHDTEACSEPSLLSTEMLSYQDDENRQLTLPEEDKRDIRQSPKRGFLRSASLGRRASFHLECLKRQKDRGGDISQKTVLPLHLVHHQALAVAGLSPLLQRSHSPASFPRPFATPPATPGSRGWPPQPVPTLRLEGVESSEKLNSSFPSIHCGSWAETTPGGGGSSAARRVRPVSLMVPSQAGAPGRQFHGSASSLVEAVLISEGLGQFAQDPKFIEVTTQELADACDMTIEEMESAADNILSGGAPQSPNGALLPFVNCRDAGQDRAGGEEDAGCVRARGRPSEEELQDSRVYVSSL
Sequence of Potassium voltage-gated channel subfamily A member 5 (Homo sapiens) (P22460 whole entry): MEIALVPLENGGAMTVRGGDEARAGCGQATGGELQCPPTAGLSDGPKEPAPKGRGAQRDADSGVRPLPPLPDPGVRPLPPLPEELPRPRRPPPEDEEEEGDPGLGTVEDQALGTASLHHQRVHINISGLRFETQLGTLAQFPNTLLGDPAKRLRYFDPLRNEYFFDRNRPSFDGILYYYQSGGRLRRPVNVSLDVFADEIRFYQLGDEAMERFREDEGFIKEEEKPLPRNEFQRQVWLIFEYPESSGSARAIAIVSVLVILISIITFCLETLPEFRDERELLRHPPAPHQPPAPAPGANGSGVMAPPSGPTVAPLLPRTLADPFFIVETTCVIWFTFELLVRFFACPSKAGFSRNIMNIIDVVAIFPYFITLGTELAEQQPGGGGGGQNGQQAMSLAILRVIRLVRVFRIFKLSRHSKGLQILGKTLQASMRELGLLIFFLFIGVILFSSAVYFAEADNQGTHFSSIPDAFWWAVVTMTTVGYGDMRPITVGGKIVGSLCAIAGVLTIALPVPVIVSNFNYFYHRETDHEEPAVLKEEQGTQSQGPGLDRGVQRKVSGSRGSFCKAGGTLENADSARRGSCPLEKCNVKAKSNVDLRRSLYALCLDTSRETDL
Sequence of Sodium channel protein type 5 subunit alpha (Q14524 whole entry): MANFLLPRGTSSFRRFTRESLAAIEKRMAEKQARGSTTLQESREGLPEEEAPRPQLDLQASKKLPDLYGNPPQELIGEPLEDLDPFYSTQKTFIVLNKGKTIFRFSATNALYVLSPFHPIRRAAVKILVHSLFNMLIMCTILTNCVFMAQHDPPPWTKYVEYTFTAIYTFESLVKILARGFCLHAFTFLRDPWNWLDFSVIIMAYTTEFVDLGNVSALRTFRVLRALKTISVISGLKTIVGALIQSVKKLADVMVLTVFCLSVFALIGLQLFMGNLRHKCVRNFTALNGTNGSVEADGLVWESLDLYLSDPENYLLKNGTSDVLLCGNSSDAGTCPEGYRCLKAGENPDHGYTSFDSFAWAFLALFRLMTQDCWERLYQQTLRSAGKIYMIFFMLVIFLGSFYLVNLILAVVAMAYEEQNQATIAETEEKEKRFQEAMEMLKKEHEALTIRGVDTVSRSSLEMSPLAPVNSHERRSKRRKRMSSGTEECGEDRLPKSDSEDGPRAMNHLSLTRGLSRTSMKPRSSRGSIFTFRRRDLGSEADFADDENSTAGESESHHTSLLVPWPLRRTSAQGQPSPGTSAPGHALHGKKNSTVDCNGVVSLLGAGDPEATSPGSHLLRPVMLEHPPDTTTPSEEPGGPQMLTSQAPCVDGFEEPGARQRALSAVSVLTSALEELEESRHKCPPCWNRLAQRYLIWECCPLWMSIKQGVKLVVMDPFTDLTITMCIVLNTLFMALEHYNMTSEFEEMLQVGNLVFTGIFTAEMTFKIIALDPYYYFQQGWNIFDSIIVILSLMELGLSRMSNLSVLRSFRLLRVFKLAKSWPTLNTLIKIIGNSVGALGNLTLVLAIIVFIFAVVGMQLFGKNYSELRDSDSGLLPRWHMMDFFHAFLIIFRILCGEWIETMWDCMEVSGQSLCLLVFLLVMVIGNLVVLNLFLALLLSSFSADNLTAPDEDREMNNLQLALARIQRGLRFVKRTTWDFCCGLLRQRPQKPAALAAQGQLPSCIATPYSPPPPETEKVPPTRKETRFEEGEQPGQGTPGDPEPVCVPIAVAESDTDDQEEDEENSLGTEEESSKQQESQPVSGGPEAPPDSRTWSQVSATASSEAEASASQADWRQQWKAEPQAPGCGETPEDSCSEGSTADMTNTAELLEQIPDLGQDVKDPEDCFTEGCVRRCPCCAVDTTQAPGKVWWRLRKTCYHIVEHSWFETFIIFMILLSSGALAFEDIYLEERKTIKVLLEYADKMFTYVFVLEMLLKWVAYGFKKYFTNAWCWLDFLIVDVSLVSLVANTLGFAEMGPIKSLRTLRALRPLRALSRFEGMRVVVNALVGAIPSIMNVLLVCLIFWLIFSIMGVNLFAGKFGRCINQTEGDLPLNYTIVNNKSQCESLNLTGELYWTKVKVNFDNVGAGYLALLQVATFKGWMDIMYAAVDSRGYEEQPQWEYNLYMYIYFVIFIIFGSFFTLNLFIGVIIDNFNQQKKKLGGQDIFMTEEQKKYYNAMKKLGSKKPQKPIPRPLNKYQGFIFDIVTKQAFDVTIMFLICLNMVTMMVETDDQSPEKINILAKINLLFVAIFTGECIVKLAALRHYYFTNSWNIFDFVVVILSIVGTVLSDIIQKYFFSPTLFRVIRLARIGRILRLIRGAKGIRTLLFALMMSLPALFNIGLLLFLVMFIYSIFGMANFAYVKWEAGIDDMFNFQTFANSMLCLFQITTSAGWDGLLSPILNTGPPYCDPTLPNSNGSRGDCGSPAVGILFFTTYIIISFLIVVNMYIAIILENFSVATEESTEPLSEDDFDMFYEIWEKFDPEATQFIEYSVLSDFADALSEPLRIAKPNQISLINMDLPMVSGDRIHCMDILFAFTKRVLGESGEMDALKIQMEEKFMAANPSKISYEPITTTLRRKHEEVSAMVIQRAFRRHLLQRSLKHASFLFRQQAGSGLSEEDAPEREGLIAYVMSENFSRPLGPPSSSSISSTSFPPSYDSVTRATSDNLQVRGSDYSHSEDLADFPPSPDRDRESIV

In the case of `CCn1c(CNC(=O)c2nc3cc[nH]c3nc2N)[n+](CC)c2ccc(C(=O)N3CCC(N(C[C@H](O)[C@@H](O)[C@H](O)[C@H](O)CO)C[C@H](O)[C@@H](O)[C@H](O)[C@H](O)CO)CC3)cc21.O=C(O)C(F)(F)F.O=C([O-])C(F)(F)F`, half-maximal inhibition in series [1] (IC50) was put at 57 nM. The logD in [2] amounted to 2.8. Moreover, the ED100 in the series with Ovis aries [3] was 0.009 mg/kg. Further, the “fold change (FC)” value in [4] came out at 3. Also, the Drug uptake in series [5] is 13%. In addition, the fraction unbound in series [6], in series [7] and in series [8] was 0.9 in each case. Moreover, the “inhibition (INH)” value (in the series with Cytochrome P450; in [9]; in series [10]; in [11]) was “Not_active” throughout. Further, the inhibition entry in series [12] was “inactive”. Besides, the Activity entry in series [13] is on record as “Non-toxic”.
In [1], `CCn1c(CNC(=O)c2nc3cc[nH]c3nc2N)[n+](CC)c2ccc(OCCCN(C[C@H](O)[C@@H](O)[C@H](O)[C@H](O)CO)C[C@H](O)[C@@H](O)[C@H](O)[C@H](O)CO)cc21.O=C(O)C(F)(F)F.O=C([O-])C(F)(F)F` returned an IC50 of 22 nM. Also, the logD in series [2] was 1. For the same molecule, the ED100 in the series with Ovis aries [3] was determined as 0.019 mg/kg.
Consider `CCn1c(CNC(=O)c2nc3cc[nH]c3nc2N)[n+](CC)c2ccc(OC)cc21`, for which it took 2.5 nM to reach half-maximal inhibition in series [1] (IC50). For the same molecule, the logD in series [2] is 0.9.
In turn, `CCc1cnc(N)c(C(=O)NCc2n(CC)c3cc(OC)ccc3[n+]2C)n1` returned an IC50 in series [1] of 224 nM. Also, the pH-dependent lipophilicity (logD) in [2] came out at 0.9.
The matching figures for `CCn1c(CNC(=O)c2nc3cc[nH]c3nc2N)[n+](CC)c2ccc(OCCN)cc21`: 14 nM and 1.
`CCn1c(CNC(=O)c2nc3cc[nH]c3nc2N)[n+](CC)c2ccc(OCCN(C[C@H](O)[C@@H](O)[C@H](O)[C@H](O)CO)C[C@H](O)[C@@H](O)[C@H](O)[C@H](O)CO)cc21` came in with an IC50 in series [1] of 51 nM.
For `CCn1c(CNC(=O)c2nc3cc[nH]c3nc2N)[n+](CC)c2ccc(C(=O)N3CCC(N)CC3)cc21.Cl.[I-]`, the 50% inhibitory concentration (IC50) in [1] turned out to be 11 nM. Besides, the logD in series [2] was 0.6. Also, in the series on Ovis aries [3], the ED100 stood at 0.025 mg/kg. The outcome with Ovis aries [14] was Active.
`CCn1c(CNC(=O)c2nc3cc[nH]c3nc2N)[n+](CC)c2ccc(OCCCN)cc21` displayed an IC50 in series [1] of 7 nM. Besides, the logD in series [2] turned out to be 1.5.
Molecule `CCn1c(CNC(=O)c2nc(Br)cnc2N)[n+](C)c2ccc(OC)cc21.[I-]` came in with an IC50 in series [1] of 3 nM. The molecule also returned a logD in series [2] of 0.8. Further, the ED100 with Ovis aries [3] was more than 0.101 mg/kg. Moreover, in series [4], the “fold change (FC)” value is on record as 200. For the same molecule, in [15], the Drug uptake entry was “Not_active”.
As for `CCn1c(CNC(=O)c2nc3cc[nH]c3nc2N)[n+](CC)c2ccc(C(=O)NCCCN)cc21`, half-maximal inhibition in series [1] (IC50) was put at 15 nM. In addition, the pH-dependent lipophilicity (logD) in series [2] turned out to be 0.
The matching figures for `CCn1c(CNC(=O)c2nc(C)cnc2N)[n+](C)c2ccc(OC)cc21`: 4 nM and less than 1.
As for `CCn1c(CNC(=O)c2nc3cc[nH]c3nc2N)[n+](CC)c2ccc(OCCNC(=N)N)cc21`, the IC50 in series [1] came out at 2.5 nM.
Same read-out and setting: as for `CCn1c(CNC(=O)c2nc3cc[nH]c3nc2N)[n+](CC)c2ccc(C(=O)NC3CCNCC3)cc21`, the figure is 7.2 nM.
`CCn1c(CNC(=O)c2nc3cc[nH]c3nc2N)[n+](C)c2ccc(OC)cc21.O=C[O-]` returned an IC50 in series [1] of 7.7 nM. In addition, in series [2], the logD is 1. Also, the ED100 with Ovis aries [3] stood at 0.158 mg/kg. Besides, the result in the series with Ovis aries [14] was Active. In series [4], the “fold change (FC)” value is 50. Besides, the Drug uptake entry in [15] was “Active”.
Consider `CCn1c(CNC(=O)c2nc3cc[nH]c3nc2N)[n+](CC)c2ccc(C(=O)NCCN3CCC(N(C[C@H](O)[C@@H](O)[C@H](O)[C@H](O)CO)C[C@H](O)[C@@H](O)[C@H](O)[C@H](O)CO)CC3)cc21.O=C(O)C(F)(F)F.O=C([O-])C(F)(F)F`, for which 38 nM corresponded to half-maximal inhibition in series [1] (IC50). Further, in the series with Ovis aries [3], the ED100 was 0.025 mg/kg.
Consider `CCn1c(CNC(=O)c2nc(Cl)cnc2N)[n+](C)c2ccc(OC)cc21`, for which the half-maximal inhibitory concentration (IC50) in [1] amounted to 2 nM. For the same molecule, the pH-dependent lipophilicity (logD) in series [2] was 0.9.
`CCn1c(CNC(=O)c2nc3cc[nH]c3nc2N)[n+](CC)c2ccc(C(=O)NCCCN(C[C@H](O)[C@@H](O)[C@H](O)[C@H](O)CO)C[C@H](O)[C@@H](O)[C@H](O)[C@H](O)CO)cc21.O=C(O)C(F)(F)F.O=C([O-])C(F)(F)F` came in with an IC50 in series [1] of 18 nM. This molecule also came in with a log distribution coefficient (logD) in series [2] of 1. Besides, the ED100 in the series on Ovis aries [3] is 0.026 mg/kg.
As to `CCn1c(CNC(=O)c2nc3ccn(C)c3nc2N)[n+](C)c2ccc(OC)cc21`, in series [1], the IC50 is more than 7700 nM. Also, the logD in series [2] was 0.8.
For `CCn1c(CNC(=O)c2nc3cc[nH]c3nc2N)[n+](CC)c2ccc(C(=O)NC3CCN(C[C@H](O)[C@@H](O)[C@H](O)[C@H](O)CO)CC3)cc21.O=C(O)C(F)(F)F.O=C([O-])C(F)(F)F`, in series [1], the IC50 worked out at 7.1 nM. The logD in [2] came to 1. The ED100 in the series on Ovis aries [3] was determined as 0.031 mg/kg.
On to `CCn1c(CNC(=O)c2nc3cc[nH]c3nc2N)[n+](CC)c2ccc(C(=O)NCCN3CCC(N)CC3)cc21`, for which the midpoint of inhibition in series [1], the IC50, lay at 10 nM.
